Assay results as given in patent publication US20250120989A1, “BRIDGED TRICYCLIC CARBAMOYLPYRIDONE COMPOUNDS AND USES THEREOF” (priority 2023, published 2025).
≈ marks a conversion by molar mass, not a printed value.

Key:
HIV-1 (IIIB) = assay: microbe, parasite or virus in culture; assay type: cell-based; settings: Human immunodeficiency virus 1, MT4, 120 h; HIV-1 (IIIB) replication in MT-4 cells, 5 days, Cell Titer Glo; read-out: MT4 EC50
in vitro = settings: human, uninfected MT-4 cells
physchem = settings: FaSSIF, 23 °C, thermodynamic from solid

Row | Structure (SMILES) | EC50 (HIV-1 (IIIB)) [µM] | CC50 at 5 days (in vitro) [µM] | solubility thermodynamic at 24 h (physchem) [µg/mL]
1 | CC1=NO[C@@]2(CC[C@H](C)N3C[C@H]2n2cc(C(=O)NCc4ccc(F)cc4F)c(=O)c(OC(=O)OCC(C)(C)COP(=O)(O)O)c2C3=O)C1 [Compound 13, (3′S,5S,7′R)-10′-((2,4-difluorobenzyl)carbamoyl)-3,3′-dimethyl-1′,11′-dioxo-1′,4′,5′,11′-tetrahydro-3′H,4H,7′H-spiro[isoxazole-5,6′-[2,7]methanopyrido[1,2-a][1,4]diazonin]-12′-yl (2,2-dimethyl-3-(phosphonooxy)propyl) carbonate] | 0.00198 | 14 | 4380 (≈ 6.29 mM)
2 | CC1=NO[C@@]2(CC[C@H](C)N3C[C@H]2n2cc(C(=O)NCc4ccc(F)cc4F)c(=O)c(OCOC(=O)OC[C@H](C)OP(=O)(O)O)c2C3=O)C1 [Compound 17, (((3′S,5S,7′R)-10′-((2,4-difluorobenzyl)carbamoyl)-3,3′-dimethyl-1′,11′-dioxo-1′,4′,5′,11′-tetrahydro-3′H,4H,7′H-spiro[isoxazole-5,6′-[2,7]methanopyrido[1,2-a][1,4]diazonin]-12′-yl)oxy)methyl ((S)-2-(phosphonooxy)propyl) carbonate] | 0.00205 | 13.7 | 4590 (≈ 6.57 mM)
3 | CC1=NO[C@@]2(CC[C@H](C)N3C[C@H]2n2cc(C(=O)NCc4ccc(F)cc4F)c(=O)c(OCOC(=O)O[C@@H](C)COP(=O)(O)O)c2C3=O)C1 [Compound 19, (((3′S,5S,7′R)-10′-((2,4-difluorobenzyl)carbamoyl)-3,3′-dimethyl-1′,11′-dioxo-1′,4′,5′,11′-tetrahydro-3′H,4H,7′H-spiro[isoxazole-5,6′-[2,7]methanopyrido[1,2-a][1,4]diazonin]-12′-yl)oxy)methyl ((S)-1-(phosphonooxy)propan-2-yl) carbonate] | 0.00235 | 12.2 | 5060 (≈ 7.24 mM)
4 | CC1=NO[C@@]2(CC[C@H](C)N3C[C@H]2n2cc(C(=O)NCc4ccc(F)cc4F)c(=O)c(OCOC(=O)N(C)CCN(CC(=O)O)C(=O)OCOP(=O)(O)O)c2C3=O)C1 [Compound 21, N-(2-((((((3′S,5S,7′R)-10′-((2,4-difluorobenzyl)carbamoyl)-3,3′-dimethyl-1′,11′-dioxo-1′,4′,5′,11′-tetrahydro-3′H,4H,7′H-spiro[isoxazole-5,6′-[2,7]methanopyrido[1,2-a][1,4]diazonin]-12′-yl)oxy)methoxy)carbonyl)(methyl)amino)ethyl)-N-(((phosphonooxy)methoxy)carbonyl)glycine] | 0.0015 | 15.2 | 5040 (≈ 6.08 mM)
5 | CC1=NO[C@@]2(CC[C@H](C)N3C[C@H]2n2cc(C(=O)NCc4ccc(F)cc4F)c(=O)c(OCOC(=O)OC[C@@H](C)OP(=O)(O)O)c2C3=O)C1 [Compound 22, (((3′S,5S,7′R)-10′-((2,4-difluorobenzyl)carbamoyl)-3,3′-dimethyl-1′,11′-dioxo-1′,4′,5′,11′-tetrahydro-3′H,4H,7′H-spiro[isoxazole-5,6′-[2,7]methanopyrido[1,2-a][1,4]diazonin]-12′-yl)oxy)methyl ((R)-2-(phosphonooxy)propyl) carbonate] | 0.00193 | 9.78 | 4180 (≈ 5.99 mM)
6 | COC1=NO[C@@]2(CC[C@H](C)N3C[C@H]2n2cc(C(=O)NCc4ccc(F)cc4F)c(=O)c(OCOC(=O)OC[C@H](C)OP(=O)(O)O)c2C3=O)C1 [Compound 23, (((3′S,5S,7′R)-10′-((2,4-difluorobenzyl)carbamoyl)-3-methoxy-3′-methyl-1′,11′-dioxo-1′,4′,5′,11′-tetrahydro-3′H,4H,7′H-spiro[isoxazole-5,6′-[2,7]methanopyrido[1,2-a][1,4]diazonin]-12′-yl)oxy)methyl ((S)-2-(phosphonooxy)propyl) carbonate] | 0.00233 | 14.8 | 4400 (≈ 6.16 mM)
7 | COC1=NO[C@@]2(CC[C@H](C)N3C[C@H]2n2cc(C(=O)NCc4ccc(F)cc4F)c(=O)c(OCOC(=O)O[C@@H](C)COP(=O)(O)O)c2C3=O)C1 [Compound 24, (((3′S,5S,7′R)-10′-((2,4-difluorobenzyl)carbamoyl)-3-methoxy-3′-methyl-1′,11′-dioxo-1′,4′,5′,11′-tetrahydro-3′H,4H,7′H-spiro[isoxazole-5,6′-[2,7]methanopyrido[1,2-a][1,4]diazonin]-12′-yl)oxy)methyl ((S)-1-(phosphonooxy)propan-2-yl) carbonate] | 0.00229 | 17.1 | 5000 (≈ 7 mM)
8 | CC[C@H](COP(=O)(O)O)OC(=O)OCOc1c2n(cc(C(=O)NCc3ccc(F)cc3F)c1=O)[C@@H]1CN(C2=O)[C@@H](C)CC[C@]12CC(C)=NO2 [Compound 25, (((3′S,5S,7′R)-10′-((2,4-difluorobenzyl)carbamoyl)-3,3′-dimethyl-1′,11′-dioxo-1′,4′,5′,11′-tetrahydro-3′H,4H,7′H-spiro[isoxazole-5,6′-[2,7]methanopyrido[1,2-a][1,4]diazonin]-12′-yl)oxy)methyl ((R)-1-(phosphonooxy)butan-2-yl) carbonate] | 0.00221 | 13.9 | 5130 (≈ 7.2 mM)
9 | CC[C@@H](COP(=O)(O)O)OC(=O)OCOc1c2n(cc(C(=O)NCc3ccc(F)cc3F)c1=O)[C@@H]1CN(C2=O)[C@@H](C)CC[C@]12CC(C)=NO2 [Compound 26, (((3′S,5S,7′R)-10′-((2,4-difluorobenzyl)carbamoyl)-3,3′-dimethyl-1′,11′-dioxo-1′,4′,5′,11′-tetrahydro-3′H,4H,7′H-spiro[isoxazole-5,6′-[2,7]methanopyrido[1,2-a][1,4]diazonin]-12′-yl)oxy)methyl ((S)-1-(phosphonooxy)butan-2-yl) carbonate] | 0.00271 | 13.5 | 4760 (≈ 6.69 mM)
10 | CC1=NO[C@@]2(CC[C@H](C)N3C[C@H]2n2cc(C(=O)NCc4ccc(F)cc4F)c(=O)c(OCOC(=O)O[C@H](C)[C@@H](C)OP(=O)(O)O)c2C3=O)C1 [Compound 27, (((3′S,5S,7′R)-10′-((2,4-difluorobenzyl)carbamoyl)-3,3′-dimethyl-1′,11′-dioxo-1′,4′,5′,11′-tetrahydro-3′H,4H,7′H-spiro[isoxazole-5,6′-[2,7]methanopyrido[1,2-a][1,4]diazonin]-12′-yl)oxy)methyl ((2R,3R)-3-(phosphonooxy)butan-2-yl) carbonate] | 0.00247 | 18.7 | 4660 (≈ 6.55 mM)
11 | CC1=NO[C@@]2(CC[C@H](C)N3C[C@H]2n2cc(C(=O)NCc4ccc(F)cc4F)c(=O)c(OCOC(=O)O[C@@H](C)[C@H](C)OP(=O)(O)O)c2C3=O)C1 [Compound 28, (((3′S,5S,7′R)-10′-((2,4-difluorobenzyl)carbamoyl)-3,3′-dimethyl-1′,11′-dioxo-1′,4′,5′,11′-tetrahydro-3′H,4H,7′H-spiro[isoxazole-5,6′-[2,7]methanopyrido[1,2-a][1,4]diazonin]-12′-yl)oxy)methyl ((2S,3S)-3-(phosphonooxy)butan-2-yl) carbonate] | 0.00485 | 28.9 | 4400 (≈ 6.18 mM)
